US20030223978A1, “Conjugates of an AMF ligand and a cytotoxic molecule for use in cancer therapy” (priority 1998, published 2003)

Assays:
[1] = system: B16-F10 metastatic murine melanoma cell line; experiment: Cell toxicity of AMF-doxorubicin conjugate; format: cell-based; conditions: approximately 0.3, 3, or 30 μg/ml; 3 (Expt. 1) or 4 days (Expt. 2); increasing concentrations
Description: Rabbit PHI is internalized by murine NIH-3T3 fibroblasts (Benlimame et al., 1998, Molec. Biol. Cell 9: 1773-1786) and the ability of the AMF-doxorubicin conjugate to kill metastatic tumor cells was tested with the B16-F10 metastatic murine melanoma cell line. B16-F10 cells were plated at a density of 4,000 cells/cm2 and after 24 hours in culture AMF-doxorubicin conjugate was added at a concentration of approximately 0.3, 3, or 30 μg/ml (FIG. 8). After 3 (Expt. 1) or 4 days (Expt. 2) the cultures were fixed and cells remaining attached to the substrate counted. The number of cells remaining attached to the substrate is presented relative to control cells to which no AMF-doxorubicin was added.

[2] = system: NIH-3T3 cells; experiment: bAMF internalization, immunofluorescence and confocal microscopy; format: cell-based, mouse
Description: For the AMF internalization studies, NIH-3T3 cells were pulsed with biotinylated AMF (˜250-500 μg/ml) and chased at 37° C. for the indicated periods of time prior to fixation by the addition of precooled (−80° C.) methanol/acetone directly to the cells. […] Disruption of clathrin coated pits and vesicles by cytoplasmic acidification was performed essentially as previously described (Heuser, J. (1989) J. Cell Biol. 108, 401-411). NIH-3T3 cells were pretreated with acidification medium (DMEM containing 5% calf serum and 50 mM MES pH 5.5) for 15 minutes at 37° C. prior to addition of bAMF in acidification medium for one hour at 37° C. To ensure that cellular acidification blocked clathrin-mediated endocytosis, Texas Red transferrin (50 μg/ml) was added to cells in regular or acidification medium for 30 minutes at 37° C. after which the cells were fixed with 3% paraformaldehyde.
After labeling the coverslips were mounted in Airvol (Air Products and Chemicals Inc., Allentown, Pa.) and viewed in a Zeiss Axioskop fluorescent microscope equipped with a 63× Plan Apochromat objective and selective filters. Confocal microscopy was performed with the 60× Nikon Plan Apochromat objective of a dual channel BioRad 600 laser scanning confocal microscope equipped with a krypton/argon laser and the corresponding dichroic reflectors to distinguish fluorescein and Texas Red labeling. Confocal images were printed using a Polaroid TX 1500 video printer.

[3] = system: NIH-3T3 cells; experiment: bAMF internalization pathway by post-embedding electron microscopy; format: cell-based, mouse
Description: Post-embedding immunolabeling for AMF-R was performed as previously described (Benlimame, N. et al. (1995) J. Cell Biol. 129, 459-471). Cells grown on petri dishes were rinsed and incubated at 37° C. in Ringer's solution for 15 minutes before fixing in Ringer's solution containing 2% paraformaldehyde and 0.2% glutaraldehyde for 30 minutes at 37° C. The fixed cells were rinsed in PBS/CM, scraped from the petri dish and collected by centrifugation. The cell pellet was post-fixed for 30 minutes with 1% osmium tetroxide in PBS/CM containing 1.5% potassium ferrocyanide (reduced osmium), dehydrated and embedded in LR-White resin. […] The numerical density of gold particles associated with plasma membrane, caveolae, clathrin coated pits and vesicles, smooth tubules and vesicles, and rough ER was determined. The length of the limiting membrane of the indicated organelles was measured using a Sigma-Scan measurement system and the gold particles associated with these organelles counted. […] Control labeling with non-immune rat IgM antibodies was analyzed similarly.
To follow the endocytic pathway of AMF by electron microscopy, biotinylated AMF was internalized as described for the fluorescence studies and detected by postembedding labeling with streptavidin conjugated to 10 nm gold as described above.

[4] = biological target: T1, AMF-R (Mus musculus, UniProt Q9R049); experiment: Cell surface labeling of viable cells at 4° C. with bAMF and anti-AMF-R; format: binding; conditions: viable NIH-3T3 cells, confocal
T1 construct: Confocal imaging of cell surface labeling of viable NIH-3T3 cells at 4° C. with bAMF; endogenous in cells; host or cells: NIH-3T3 fibroblasts (ATCC, a highly spread clone)
T1 sequence (Q9R049 whole entry): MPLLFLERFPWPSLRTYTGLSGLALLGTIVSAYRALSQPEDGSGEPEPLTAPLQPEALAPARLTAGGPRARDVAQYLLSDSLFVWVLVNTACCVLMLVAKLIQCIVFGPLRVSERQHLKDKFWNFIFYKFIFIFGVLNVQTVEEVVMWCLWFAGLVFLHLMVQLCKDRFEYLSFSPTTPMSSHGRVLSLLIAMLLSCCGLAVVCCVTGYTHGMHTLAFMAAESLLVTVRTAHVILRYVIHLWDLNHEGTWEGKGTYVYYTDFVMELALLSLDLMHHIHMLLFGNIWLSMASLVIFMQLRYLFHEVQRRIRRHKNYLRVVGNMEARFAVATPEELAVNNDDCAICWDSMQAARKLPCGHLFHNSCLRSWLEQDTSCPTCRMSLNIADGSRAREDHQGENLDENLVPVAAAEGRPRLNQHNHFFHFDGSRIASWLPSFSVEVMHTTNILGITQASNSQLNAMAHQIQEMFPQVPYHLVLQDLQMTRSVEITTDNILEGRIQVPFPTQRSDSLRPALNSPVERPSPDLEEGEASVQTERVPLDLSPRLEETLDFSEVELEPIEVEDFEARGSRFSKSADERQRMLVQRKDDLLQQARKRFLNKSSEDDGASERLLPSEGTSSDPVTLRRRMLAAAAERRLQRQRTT
Description: Cells were plated on glass cover slips 2 days prior to each experiment at a concentration of 30,000 cells/35 mm dish. For AMF-R surface labeling, the cells were incubated in DMEM minus bicarbonate supplemented with 25 mM Hepes pH 7.2 and 2.5% serum for 15 min at 4° C. prior to labeling with anti-AMF-R primary antibody or biotinylated AMF at 4° C. for 30 min. The cells were washed at 4° C. and then fixed with 3% paraformaldehyde in phosphate buffered saline (pH 7.4) supplemented with 0.1 mM Ca++ and 1 mM Mg++ (PBS/CM) for 15 min at room temperature. For caveolin labeling, after AMF-R surface labeling at 4° C. and fixation as above, the cells were permeabilized with 0.2% Triton X-100 for 10 min, then extensively washed with PBS/CM containing 1% BSA. The cells were incubated with rabbit anti-caveolin polyclonal antibodies, washed, and then incubated with FITC goat anti-rat IgM to reveal anti-AMF-R and Texas Red donkey anti-rabbit IgG to reveal anti-caveolin.

AMF-doxorubicin: commercially available PHI (AMF) conjugated to the cellular toxin doxorubicin by glutaraldehyde mediated crosslinking
number of cells remaining attached to the substrate relative to control cells [1]: progressive toxicity

bAMF: Rabbit phosphohexose isomerase (AMF) biotinylated with NHS-LC-biotin
localization of internalized bAMF ([2]; 1 hour at 37° C., 10-fold excess unlabeled AMF): localized only to punctate structures
localization of internalized bAMF ([2]; 1 hour at 37° C., medium acidified to pH 5.5 (clathrin-mediated endocytosis disrupted)): localized to tubules which colocalize with AMF-R tubules
localization of internalized bAMF ([2]; 1 hour pulse at 37° C., regular medium): localized to tubular structures which colocalize with AMF-R tubules
localization of internalized bAMF ([2]; two hour pulse, chase of 2 or 4 hours): accumulation of bAMF labeling in tubular structures which colocalized with AMF-R tubules
localization of bAMF by streptavidin-10 nm gold ([3]; 10 minute pulse at 37° C.): localized to cell surface caveolae
localization of bAMF by streptavidin-10 nm gold ([3]; 30 minute pulse at 37° C.): localized to caveolae and smooth vesicles
colocalization of cell surface bAMF with anti-AMF-R labeling [4]: high degree of colocalization
